Here are results for 24 compounds from patent US9969742B2, “Imidazotriazinone compounds” (Ironwood Pharmaceuticals, Inc., priority 2012, dated 2018).

Usually IC50 stands for the concentration needed to halve the response being measured.

Like-named read-outs stand apart in the source and are kept apart here.

This assay has as its target T1, PDE9A2 (Homo sapiens, UniProt O76083).
T1 construct: purchased Reaction Biology Corporation, Malvern, Pa
In words: Phosphodiesterase enzyme screening assay, PDE9A2. Conditions: read-out: Band (PDE9A2 IC50). In kind it is biochemical. The source says: Compounds of the invention were screened against PDE1A, PDE1B, PDE2A, PDE3A, PDE3B, PDE4A1A, PDE4B1, PDE4D3, PDE5A1, PDE6C, PDE7A, PDE8A1, PDE9A2, PDE10A2 AND PDE11A isoforms of the phosphodiesterase enzyme to determine activity and overall selectivity through comparative analysis. […] Where 8-methoxy-IBMX and Zaprinast were used as reference inhibitors.
The phosphodiesterase enzyme isoforms were obtained from a commercial retailer (Reaction Biology Corporation, Malvern, Pa.) for use in the instant screening assay.
The analysis was completed using the Caliper LabChip 3000 and a 12-sipper LabChip. LabChip assays are separations-based, meaning that the product and substrate are electrophoretically separated, thereby minimizing interferences and yielding the highest data quality available on any screening platform. […] High Z′ values, few false positives, few false negatives and analytical quality reproducibility are the reasons cited for the increasing reliance on the LabChip assays.
The off-chip incubation mobility-shift phosphodiesterase assay uses a microfluidic chip to measure the conversion of a fluorescent cyclic AMP substrate to a 5′-AMP product, or a cyclic GMP substrate to a 5′-GMP product. The reaction mixture, from a microtiter plate well, is introduced through a capillary sipper onto the chip, where the fluorescent substrate and product are separated by electrophoresis and detected via laser-induced fluorescence. […] The precision of microfluidics allows researchers to detect subtle interactions between drug candidates and therapeutic targets.
Reactions were carried out in 100 mM HEPES (pH 7.5), 5 mM MgCl2, 1 mM DTT, 0.003% Brij, 4.0 μM cGMP substrate. The reaction was started by addition of cGMP or cAMP and incubated for 1 hour at R.T. The reaction was terminated by the addition of stop buffer containing 100 mM HEPES (pH 7.5), 15 mM EDTA, 0.015% Brij-35, 5% DMSO. Cyclic AMP/GMP substrate and 5′-AMP/5′-GMP product were separated by charge using electrophoretic mobility shift. Product formed was compared to control wells to determine inhibition or enhancement of enzyme activity.
Data points were averages of quadruplicate wells and error bars represented the SEM for each point.

[1] abbreviates: Table 1, 10 concentrations, 4.0 μM cGMP substrate, 1 hour at R.T.

T1 sequence (O76083 1-533 isoform O76083-2): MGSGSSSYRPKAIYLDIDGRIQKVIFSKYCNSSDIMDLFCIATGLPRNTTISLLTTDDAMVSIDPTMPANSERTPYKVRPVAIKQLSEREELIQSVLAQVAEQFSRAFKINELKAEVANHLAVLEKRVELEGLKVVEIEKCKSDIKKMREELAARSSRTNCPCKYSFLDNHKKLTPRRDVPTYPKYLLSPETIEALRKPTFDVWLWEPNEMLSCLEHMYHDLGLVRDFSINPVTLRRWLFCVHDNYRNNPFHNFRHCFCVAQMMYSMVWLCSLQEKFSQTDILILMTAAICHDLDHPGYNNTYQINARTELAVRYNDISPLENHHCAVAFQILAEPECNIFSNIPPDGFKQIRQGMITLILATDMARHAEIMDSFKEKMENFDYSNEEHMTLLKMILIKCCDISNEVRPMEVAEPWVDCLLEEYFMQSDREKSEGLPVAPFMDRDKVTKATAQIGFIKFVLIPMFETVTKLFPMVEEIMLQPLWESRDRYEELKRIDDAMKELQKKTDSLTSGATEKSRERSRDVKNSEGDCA

For `CC1CN(Cc2ccc3ccccc3n2)CC1c1nn2c(C3CCOCC3)ncc2c(=O)[nH]1` (single isomer, unassigned; (+)) [(+)-2-((3,4-trans)-4-methyl-1-(quinolin-2-ylmethyl)pyrrolidin-3-yl)-7-(tetrahydro-2H-pyran-4-yl)imidazo[5,1-f][1,2,4]triazin-4(3H)-one], the IC50 under setting [1] was below 1000 nM.

With `CC1CN(Cc2cccc(C#N)c2)CC1c1nn2c(C3CCOCC3)ncc2c(=O)[nH]1` (single isomer, unassigned; (-)) [(−)-3-(((3,4-trans)-3-methyl-4-(4-oxo-7-(tetrahydro-2H-pyran-4-yl)-3,4-dihydroimidazo[5,1-f][1,2,4]triazin-2-yl)pyrrolidin-1-yl)methyl)benzonitrile], the half-maximal inhibitory concentration (IC50) under setting [1] is below 1000 nM.

`Cc1cnc(CN2C[C@@H](C)[C@H](c3nn4c(C5CCOCC5)ncc4c(=O)[nH]3)C2)cn1` (relative stereo) [(+)-2-((3,4-trans)-4-methyl-1-((5-methylpyrazin-2-yl)methyl)pyrrolidin-3-yl)-7-(tetrahydro-2H-pyran-4-yl)imidazo[5,1-f][1,2,4]triazin-4(3H)-one]: the 50% inhibitory concentration (IC50) under setting [1] was below 1000 nM.

Turning to `CC1CN(Cc2ccc(F)cc2)CC1c1nn2c(C3CCOCC3)ncc2c(=O)[nH]1` (single isomer, unassigned; (-)) [(−)-2-((3,4-trans)-1-(4-fluorobenzyl)-4-methylpyrrolidin-3-yl)-7-(tetrahydro-2H-pyran-4-yl)imidazo[5,1-f][1,2,4]triazin-4(3H)-one], under setting [1], the IC50 is below 1000 nM.

As to `CC1CN(Cc2ccccc2)CC1c1nn2c(C3CCCC3)ncc2c(=O)[nH]1` (single isomer, unassigned; (+)) [(+)-2-((3,4-trans)-1-benzyl-4-methylpyrrolidin-3-yl)-7-cyclopentylimidazo[5,1-f][1,2,4]triazin-4(3H)-one], the 50% inhibitory concentration (IC50) was below 1000 nM.

As for `CC1CN(S(=O)(=O)c2ccccc2C#N)CC1c1nn2c(C3CCOCC3)ncc2c(=O)[nH]1` (single isomer, unassigned; (-)) [(−)-2-(((3,4-trans)-3-methyl-4-(4-oxo-7-(tetrahydro-2H-pyran-4-yl)-3,4-dihydroimidazo[5,1-f][1,2,4]triazin-2-yl)pyrrolidin-1-yl)sulfonyl)benzonitrile], the half-inhibitory concentration (IC50) under setting [1] is below 1000 nM.

On to `CC1CN(C(=O)c2ccc(F)cc2)CC1c1nn2c(C3CCOCC3)ncc2c(=O)[nH]1` (single isomer, unassigned; (+)) [(+)-2-((3,4-trans)-1-(4-fluorobenzoyl)-4-methylpyrrolidin-3-yl)-7-(tetrahydro-2H-pyran-4-yl)imidazo[5,1-f][1,2,4]triazin-4(3H)-one], for which the IC50 under setting [1] lay within 1000 to 10000 nM.

`CC1CN(C(=O)c2ccccc2C#N)CC1c1nn2c(C3CCOCC3)ncc2c(=O)[nH]1` (single isomer, unassigned; (-)) [(−)-2-((3,4-trans)-3-methyl-4-(4-oxo-7-(tetrahydro-2H-pyran-4-yl)-3,4-dihydroimidazo[5,1-f][1,2,4]triazin-2-yl)pyrrolidine-1-carbonyl)benzonitrile]: the IC50 under setting [1] was below 1000 nM.

Take `CC1CN(Cc2ccc(Cl)cc2)CC1c1nn2c(-c3cccc(F)c3)ncc2c(=O)[nH]1` (single isomer, unassigned; (+)) [(+)-2-((3,4-trans)-1-(4-chlorobenzyl)-4-methylpyrrolidin-3-yl)-7-(3-fluorophenyl)imidazo[5,1-f][1,2,4]triazin-4(3H)-one]: the 50% inhibitory concentration (IC50) was 1000 to 10000 nM.

`CC1CN(S(=O)(=O)c2ccccc2F)CC1c1nn2c(C3CCOCC3)ncc2c(=O)[nH]1` (single isomer, unassigned; (+)) [(+)-2-((3,4-trans)-1-((2-fluorophenyl)sulfonyl)-4-methylpyrrolidin-3-yl)-7-(tetrahydro-2H-pyran-4-yl)imidazo[5,1-f][1,2,4]triazin-4(3H)-one]: the concentration for half-maximal inhibition (IC50) under setting [1] is below 1000 nM.

`CC1CN(C(=O)c2ncccn2)CC1c1nn2c(C3CCOCC3)ncc2c(=O)[nH]1` (single isomer, unassigned; (-)) [(−)-2-((3,4-trans)-4-methyl-1-(pyrimidine-2-carbonyl)pyrrolidin-3-yl)-7-(tetrahydro-2H-pyran-4-yl)imidazo[5,1-f][1,2,4]triazin-4(3H)-one]: the IC50 under setting [1] was below 1000 nM.

As to `CC1CN(C(C)c2ccccc2)CC1c1nn2c(C3CCOCC3)ncc2c(=O)[nH]1` (single isomer, unassigned; (+)), under setting [1], the IC50 lay within 1000 to 10000 nM.

As for `CC1CN(Cc2ccccc2)CC1c1nn2c(C3CCN(C(=O)OC(C)(C)C)CC3)ncc2c(=O)[nH]1` (single isomer, unassigned; (-)) [(−)-tert-butyl 4-(2-((3,4-trans)-1-benzyl-4-methylpyrrolidin-3-yl)-4-oxo-3,4-dihydroimidazo[1,5-f][1,2,4]triazin-7-yl)piperidine-1-carboxylate], the half-inhibitory concentration (IC50) under setting [1] is above 10000 nM.

With `CC1CN(Cc2nc3ccccc3[nH]2)CC1c1nn2c(-c3ccc(F)cc3)ncc2c(=O)[nH]1` (single isomer, unassigned; (+)) [(+)-2-((3,4-trans)-1-((1H-benzo[d]imidazol-2-yl)methyl)-4-methylpyrrolidin-3-yl)-7-(4-fluorophenyl)imidazo[5,1-f][1,2,4]triazin-4(3H)-one], the IC50 was below 1000 nM.

For the compound `CC1CN(C(=O)c2ccncc2)CC1c1nn2c(C3CCOCC3)ncc2c(=O)[nH]1` (single isomer, unassigned; (-)) [(−)-2-((3,4-trans)-1-isonicotinoyl-4-methylpyrrolidin-3-yl)-7-(tetrahydro-2H-pyran-4-yl)imidazo[5,1-f][1,2,4]triazin-4(3H)-one], the IC50 under setting [1] is below 1000 nM.

Regarding `CC1CN(Cc2ccccc2F)CC1c1nn2c(C3CCOCC3)ncc2c(=O)[nH]1` (single isomer, unassigned; (-)) [(−)-2-((3,4-trans)-1-(2-fluorobenzyl)-4-methylpyrrolidin-3-yl)-7-(tetrahydro-2H-pyran-4-yl)imidazo[5,1-f][1,2,4]triazin-4(3H)-one], the IC50 under setting [1] was below 1000 nM.

For `CC1CN(Cc2nc3ccccn3n2)CC1c1nn2c(-c3ccccc3)ncc2c(=O)[nH]1` (single isomer, unassigned; (+)) [(+)-2-((3,4-trans)-1-([1,2,4]triazolo[1,5-a]pyridin-2-ylmethyl)-4-methylpyrrolidin-3-yl)-7-phenylimidazo[5,1-f][1,2,4]triazin-4(3H)-one], the concentration for half-maximal inhibition (IC50) is below 1000 nM.

Regarding `CC1CN(S(=O)(=O)c2ccc(F)cc2)CC1c1nn2c(C3CCOCC3)ncc2c(=O)[nH]1` (single isomer, unassigned; (+)) [(+)-2-((3,4-trans)-1-((4-fluorophenyl)sulfonyl)-4-methylpyrrolidin-3-yl)-7-(tetrahydro-2H-pyran-4-yl)imidazo[5,1-f][1,2,4]triazin-4(3H)-one], the IC50 under setting [1] is below 1000 nM.

Take `Cc1ccc(F)cc1-c1ncc2c(=O)[nH]c(C3CN(Cc4ccccc4)CC3C)nn12` (single isomer, unassigned; (-)) [(−)-2-((3,4-trans)-1-benzyl-4-methylpyrrolidin-3-yl)-7-(5-fluoro-2-methylphenyl)imidazo[1,5-f][1,2,4]triazin-4(3H)-one]: the concentration for half-maximal inhibition (IC50) under setting [1] lay within 1000 to 10000 nM.

For the compound `CC1CN(S(=O)(=O)c2ccccc2)CC1c1nn2c(C3CCOCC3)ncc2c(=O)[nH]1` (single isomer, unassigned; (-)) [(−)-2-((3,4-trans)-4-methyl-1-(phenylsulfonyl)pyrrolidin-3-yl)-7-(tetrahydro-2H-pyran-4-yl)imidazo[5,1-f][1,2,4]triazin-4(3H)-one], the half-inhibitory concentration (IC50) under setting [1] fell in the range of 1000 to 10000 nM.

`CC1CN(C(C)c2ccccc2)CC1c1nn2c(C3CCOCC3)ncc2c(=O)[nH]1` (single isomer, unassigned; (-)): the half-inhibitory concentration (IC50) under setting [1] was below 1000 nM.

Consider `CC1CN(Cc2cn3ccccc3n2)CC1c1nn2c(-c3ccccc3)ncc2c(=O)[nH]1` (single isomer, unassigned; (+)) [(+)-2-((3,4-trans)-1-(imidazo[1,2-a]pyridin-2-ylmethyl)-4-methylpyrrolidin-3-yl)-7-phenylimidazo[5,1-f][1,2,4]triazin-4(3H)-one], for which the IC50 was below 1000 nM.

For the compound `CC1CN(CC2CCN(C)CC2)CC1c1nn2c(C3CCOCC3)ncc2c(=O)[nH]1` (single isomer, unassigned; (+)) [(+)-2-((3,4-trans)-4-methyl-1-((1-methylpiperidin-4-yl)methyl)pyrrolidin-3-yl)-7-(tetrahydro-2H-pyran-4-yl)imidazo[5,1-f][1,2,4]triazin-4(3H)-one], the half-maximal inhibitory concentration (IC50) lay within 1000 to 10000 nM.

Consider `CC1CN(Cc2ncc(F)c(N3CCOCC3)n2)CC1c1nn2c(C3CCOCC3)ncc2c(=O)[nH]1` (single isomer, unassigned; (+)) [(+)-2-((3,4-trans)-1-((5-fluoro-4-morpholinopyrimidin-2-yl)methyl)-4-methylpyrrolidin-3-yl)-7-(tetrahydro-2H-pyran-4-yl)imidazo[5,1-f][1,2,4]triazin-4(3H)-one], for which, under “Table 2, 10 concentrations, 4.0 μM cGMP substrate, 1 hour at R.T.”, the IC50 was below 1000 nM.
